Positions count from the first letter of the chain named.
Legend:
Assay in all cases: microscale thermophoresis
Settings in all cases: EWSR1-C mutant; read-out: binding constants
EWSR1-C (GFP-EWSR1-C) [1] = molecular target: T1, EWSR1-C (GFP-EWSR1-C) (Homo sapiens, UniProt Q01844, T393A)
T1 construct: C-terminal region 301-656 (contains RNA recognition motif 353-453), GFP fusion, overexpressed in HEK293T, lysate
T1 sequence (Q01844 301-656 T393A): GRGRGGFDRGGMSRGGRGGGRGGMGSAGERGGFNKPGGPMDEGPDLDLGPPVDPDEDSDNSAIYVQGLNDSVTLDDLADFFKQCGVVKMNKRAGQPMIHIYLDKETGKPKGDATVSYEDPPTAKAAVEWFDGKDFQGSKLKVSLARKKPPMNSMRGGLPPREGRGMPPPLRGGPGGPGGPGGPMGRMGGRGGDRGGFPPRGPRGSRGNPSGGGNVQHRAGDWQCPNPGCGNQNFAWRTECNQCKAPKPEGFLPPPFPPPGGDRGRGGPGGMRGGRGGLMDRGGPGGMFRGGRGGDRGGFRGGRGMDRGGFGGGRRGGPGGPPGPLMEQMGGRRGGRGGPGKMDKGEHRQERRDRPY
Procedure: (§1) microscale thermophoresis on EWSR1-C (GFP-EWSR1-C) | The binding affinity of HHT to these EWSR1 mutants was assessed through MST

EWSR1-C (GFP-EWSR1-C) [2] = molecular target: T2, EWSR1-C (GFP-EWSR1-C) (Homo sapiens, UniProt Q01844, I400A)
T2 construct: C-terminal region 301-656 (contains RNA recognition motif 353-453), GFP fusion, overexpressed in HEK293T, lysate
T2 sequence (Q01844 301-656 I400A): T1 sequence (Q01844 301-656 T393A) with A93T, I100A
Procedure: as §1

EWSR1-C (GFP-EWSR1-C) [3] = molecular target: T3, EWSR1-C (GFP-EWSR1-C) (Homo sapiens, UniProt Q01844, M397A)
T3 construct: C-terminal region 301-656 (contains RNA recognition motif 353-453), GFP fusion, overexpressed in HEK293T, lysate
T3 sequence (Q01844 301-656 M397A): T1 sequence (Q01844 301-656 T393A) with A93T, M97A
Procedure: as §1

EWSR1-C (GFP-EWSR1-C) [4] = molecular target: T4, EWSR1-C (GFP-EWSR1-C) (Homo sapiens, UniProt Q01844, P396A)
T4 construct: C-terminal region 301-656 (contains RNA recognition motif 353-453), GFP fusion, overexpressed in HEK293T, lysate
T4 sequence (Q01844 301-656 P396A): T1 sequence (Q01844 301-656 T393A) with A93T, P96A
Procedure: as §1

COC(=O)C[C@](O)(CCCC(C)(C)O)C(=O)O[C@@H]1C(OC)=C[C@]23CCCN2CCc2cc4c(cc2[C@H]13)OCO4 [Homoharringtonine]
Kd (EWSR1-C (GFP-EWSR1-C) [1]): 81 µM | Kd (EWSR1-C (GFP-EWSR1-C) [2]): 35.7 µM | Kd (EWSR1-C (GFP-EWSR1-C) [3]): 9.75 µM | Kd (EWSR1-C (GFP-EWSR1-C) [4]): 94.6 µM
